Article PMC4111509 (PLoS ONE, 2014)

Key:
Test in all cases: HPLC-UV product detection
Type in all cases: biochemical
Settings in all cases: AdoMet co-substrate
[1] = biological target: T1, NpN4OMT5 (Narcissus aff. pseudonarcissus MK-2014, UniProt A0A077ESS0)
T1 construct: gene N4OMT5; full length, N-terminal His tag (pET28a), E. coli, purified

[2] = biological target: T2, NpN4OMT4 (Narcissus aff. pseudonarcissus MK-2014, UniProt A0A077ES70)
T2 construct: gene N4OMT4; full length, N-terminal His tag (pET28a), E. coli, purified
T2 sequence (A0A077ES70 whole entry): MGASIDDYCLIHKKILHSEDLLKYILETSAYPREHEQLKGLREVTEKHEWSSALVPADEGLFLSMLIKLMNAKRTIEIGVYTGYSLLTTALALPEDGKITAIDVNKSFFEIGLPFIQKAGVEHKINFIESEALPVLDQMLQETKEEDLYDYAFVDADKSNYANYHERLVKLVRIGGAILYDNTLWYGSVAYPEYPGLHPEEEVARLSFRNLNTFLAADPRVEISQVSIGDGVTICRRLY

[3] = biological target: T3, NpN4OMT2 (Narcissus aff. pseudonarcissus MK-2014, UniProt A0A077EW86)
T3 construct: gene N4OMT2; full length, N-terminal His tag (pET28a), E. coli, purified
T3 sequence (A0A077EW86 whole entry): as the sequence (A0A077ES70 whole entry) above, with C9S, I11V, K14N, I67L counted along it

T1 sequence (A0A077ESS0 whole entry): as the sequence (A0A077ES70 whole entry) above, with I67L counted along it

With `Oc1ccc(CCNCc2ccc(O)c(O)c2)cc1` [norbelladine] the HPLC-UV product detection [1] was “enzymatic activity was confirmed for all variants using norbelladine as the substrate”, the HPLC-UV product detection [2] was “enzymatic activity was confirmed for all variants using norbelladine as the substrate” and the HPLC-UV product detection [3] was “enzymatic activity was confirmed for all variants using norbelladine as the substrate”.
